Experimental findings from patent US20150239831A1, “INHIBITORS OF CENTRAL NERVOUS SYSTEM VASOACTIVE INHIBITORY PEPTIDE RECEPTOR 2” (The Trustees Of Columbia University In The City Of New York, priority 2012, published 2015) are described below.

Holding throughout (format): cell-based
What all share (design): expressed in transfected cells; host or cells: HEK293 cells transfected with VIPR2 in pCDNA3.1 (as described)

For experiment [1], the target named is T1, VIPR2 (Homo sapiens, UniProt P41587).
T1 sequence (P41587 24-438): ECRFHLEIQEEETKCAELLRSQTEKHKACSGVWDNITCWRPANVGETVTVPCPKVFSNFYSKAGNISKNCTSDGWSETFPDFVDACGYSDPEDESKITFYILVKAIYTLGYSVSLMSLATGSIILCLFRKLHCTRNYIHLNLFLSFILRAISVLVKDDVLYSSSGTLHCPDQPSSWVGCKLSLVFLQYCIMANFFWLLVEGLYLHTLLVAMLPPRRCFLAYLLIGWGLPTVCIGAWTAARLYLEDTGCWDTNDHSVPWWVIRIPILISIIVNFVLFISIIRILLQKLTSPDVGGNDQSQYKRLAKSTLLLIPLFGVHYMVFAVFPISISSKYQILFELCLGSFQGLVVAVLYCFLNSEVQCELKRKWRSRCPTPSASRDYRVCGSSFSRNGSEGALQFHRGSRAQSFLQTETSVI
Description: % Activity: inhibition of VIP-induced cAMP elevation and β-arrestin recruitment (Table 2). The essentials:
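cAMP: HEK293 stably expressing hVIPR2, inhibitor plus VIP 30 min, cAMP by HTRF (665/620 nm ratio ×10,000). β-arrestin: HEK293 with β-arrestin2-β-gal-EA, transiently transfected with VIPR2-ProLink; inhibitor 2 h at 37° C, enzyme complementation read by luminescence.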
In general terms: Arrestin recruitment assays detect the binding of arrestin to an activated receptor.

The target of experiment [2] is T1, VIPR2. Description: Inhibition of VIP-induced cAMP elevation (% Activity cAMP). The conditions noted are these: Batch 3. The essentials:
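HEK293 cells stably transfected with human VIPR2 were incubated with inhibitor and VIP for 30 min, then cAMP was detected by HTRF after at least 1 h at room temperature. The 665/620 nm ratio ×10,000 was calculated.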

For experiment [3], the target named is T1, VIPR2. Description: Inhibition of VIP-induced β-arrestin recruitment (% Activity Arrestin). The settings on record: Batch 3. In a few lines:
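HEK293 cells stably expressing β-arrestin2–β-gal EA, transiently transfected with ProLink-tagged hVIPR2, plated overnight; inhibitor added for 2 h at 37 °C, 5% CO2. Receptor–arrestin complementation read by chemiluminescence after 5 min–1 h at room temperature; inhibition of VIP-induced recruitment reported as % activity.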

What is called inhibition is the drop in the measured response relative to a control, in per cent.

Consider `Nc1ccc(S(=O)(=O)NC[C@@H](O)C[C@@H](Cc2ccccc2)C(=O)N[C@H]2c3ccccc3C[C@H]2O)cc1` [Compound X081], for which the “% Activity” value on VIPR2 [1] is 20%. Also, at VIPR2 [2], the inhibition at 0.5 µM is 8.4%, the inhibition at 1 µM came out at 18.6% and the inhibition at 5 µM is 33.3%. On VIPR2 [3], the inhibition at 0.5 µM is -5.6%, the inhibition at 1 µM was -5.5% and the inhibition at 5 µM came out at 6.7%.
For the compound `CNc1ccc(S(=O)(=O)NC[C@@H](O)C[C@@H](Cc2ccccc2)C(=O)N[C@H]2c3ccccc3C[C@H]2O)cc1` [Compound X082], the “% Activity” value at VIPR2 [1] is on record as −1.5%. Also, on VIPR2 [2], the inhibition at 0.5 µM was -0.9%, the inhibition at 1 µM is 2% and the inhibition at 5 µM is -7.3%. Also, at VIPR2 [3], the inhibition at 0.5 µM was -0.8%, the inhibition at 1 µM stood at 1.1% and the inhibition at 5 µM came out at 4.3%.
As to `CN(C)c1ccc(S(=O)(=O)NC[C@@H](O)C[C@@H](Cc2ccccc2)C(=O)N[C@H]2c3ccccc3C[C@H]2O)cc1` [Compound X083], the “% Activity” value at VIPR2 [1] was determined as 2.65%. Also, at VIPR2 [2], the inhibition at 0.5 µM turned out to be 9.4%, the inhibition at 1 µM was -1.4% and the inhibition at 5 µM is -3.4%. Also, at VIPR2 [3], the inhibition at 0.5 µM is 4.2%, the inhibition at 1 µM is -1.6% and the inhibition at 5 µM stood at 8.7%.
With `CCCNc1ccc(S(=O)(=O)NC[C@@H](O)C[C@@H](Cc2ccccc2)C(=O)N[C@H]2c3ccccc3C[C@H]2O)cc1` [Compound X084], on VIPR2 [1], the “% Activity” value is reported as 15.6%. Besides, at VIPR2 [2], the inhibition at 0.5 µM was -2.9%, the inhibition at 1 µM was 11.3% and the inhibition at 5 µM was 24.5%. Further, on VIPR2 [3], the inhibition at 0.5 µM was determined as 4.1%, the inhibition at 1 µM stood at 2.6% and the inhibition at 5 µM is 6.7%.
For the compound `CC(C)Nc1ccc(S(=O)(=O)NC[C@@H](O)C[C@@H](Cc2ccccc2)C(=O)N[C@H]2c3ccccc3C[C@H]2O)cc1` [Compound X085], the “% Activity” value on VIPR2 [1] worked out at 16.2%. On VIPR2 [2], the inhibition at 0.5 µM turned out to be 17.2%, the inhibition at 1 µM was determined as 18.2% and the inhibition at 5 µM worked out at 20.6%. Moreover, at VIPR2 [3], the inhibition at 0.5 µM is 8.1%, the inhibition at 1 µM is -2% and the inhibition at 5 µM came to 11.8%.
For `CC(C)CNc1ccc(S(=O)(=O)NC[C@@H](O)C[C@@H](Cc2ccccc2)C(=O)N[C@H]2c3ccccc3C[C@H]2O)cc1` [Compound X086], on VIPR2 [1], the “% Activity” value worked out at 19.65%. For the same compound, on VIPR2 [2], the inhibition at 0.5 µM was 21.6%, the inhibition at 1 µM amounted to 16.7% and the inhibition at 5 µM came out at 27.4%. Moreover, on VIPR2 [3], the inhibition at 0.5 µM came out at 10.2%, the inhibition at 1 µM was 5.2% and the inhibition at 5 µM was found to be 11.9%.
Regarding `CCCCCNc1ccc(S(=O)(=O)NC[C@@H](O)C[C@@H](Cc2ccccc2)C(=O)N[C@H]2c3ccccc3C[C@H]2O)cc1` [Compound X087], on VIPR2 [1], the “% Activity” value is on record as 15.2%. Moreover, on VIPR2 [2], the inhibition at 0.5 µM was 10.8%, the inhibition at 1 µM stood at 19.1% and the inhibition at 5 µM was determined as 19.1%. For the same compound, at VIPR2 [3], the inhibition at 0.5 µM turned out to be 2.8%, the inhibition at 1 µM is 2.3% and the inhibition at 5 µM stood at 11.3%.
`CC(=O)Nc1ccc(S(=O)(=O)NC[C@@H](O)C[C@@H](Cc2ccccc2)C(=O)N[C@H]2c3ccccc3C[C@H]2O)cc1` [Compound X088]: the “% Activity” value on VIPR2 [1] came to 11.65%. Besides, at VIPR2 [2], the inhibition at 0.5 µM was 15.2%, the inhibition at 1 µM was 19.1% and the inhibition at 5 µM was 19.1%. Moreover, on VIPR2 [3], the inhibition at 0.5 µM was -1.2%, the inhibition at 1 µM came to 4.9% and the inhibition at 5 µM was 4.2%.
For the compound `CC(=O)Nc1ccc(S(=O)(=O)NC[C@H](C[C@@H](Cc2ccccc2)C(=O)N[C@H]2c3ccccc3C[C@H]2O)OC(C)=O)cc1` [Compound X089], at VIPR2 [1], the “% Activity” value worked out at 6.75%. At VIPR2 [2], the inhibition at 0.5 µM is -4.3%, the inhibition at 1 µM amounted to 32.3% and the inhibition at 5 µM came out at 3%. At VIPR2 [3], the inhibition at 0.5 µM was -9.8%, the inhibition at 1 µM is -1.8% and the inhibition at 5 µM turned out to be 10.5%.
In the case of `CC(=O)Nc1ccc(S(=O)(=O)NC[C@H](C[C@@H](Cc2ccccc2)C(=O)N[C@H]2c3ccccc3C[C@H]2OC(C)=O)OC(C)=O)cc1` [Compound X090], the “% Activity” value at VIPR2 [1] was 1.95%. At VIPR2 [2], the inhibition at 0.5 µM is -8.7%, the inhibition at 1 µM was -8.7% and the inhibition at 5 µM is -5.8%. For the same compound, at VIPR2 [3], the inhibition at 0.5 µM amounted to 0.5%, the inhibition at 1 µM came to 0.2% and the inhibition at 5 µM was 9.7%.
On to `CCC(=O)Nc1ccc(S(=O)(=O)NC[C@@H](O)C[C@@H](Cc2ccccc2)C(=O)N[C@H]2c3ccccc3C[C@H]2O)cc1` [Compound X091], for which the “% Activity” value on VIPR2 [1] turned out to be 8.25%. On VIPR2 [2], the inhibition at 0.5 µM amounted to 0.6%, the inhibition at 1 µM came out at 1.5% and the inhibition at 5 µM was determined as 26.9%. Moreover, at VIPR2 [3], the inhibition at 0.5 µM was -3.4%, the inhibition at 1 µM is -1.2% and the inhibition at 5 µM is -10.4%.
With `CC(C)C(=O)Nc1ccc(S(=O)(=O)NC[C@@H](O)C[C@@H](Cc2ccccc2)C(=O)N[C@H]2c3ccccc3C[C@H]2O)cc1` [Compound X092], the “% Activity” value on VIPR2 [1] came to 4.6%. On VIPR2 [2], the inhibition at 0.5 µM was found to be 1%, the inhibition at 1 µM amounted to 6.9% and the inhibition at 5 µM came to 16.7%. At VIPR2 [3], the inhibition at 0.5 µM is 5.3%, the inhibition at 1 µM turned out to be 5.1% and the inhibition at 5 µM was -7.5%.
For `O=C(Nc1ccc(S(=O)(=O)NC[C@@H](O)C[C@@H](Cc2ccccc2)C(=O)N[C@H]2c3ccccc3C[C@H]2O)cc1)C1CC1` [Compound X093], the “% Activity” value at VIPR2 [1] is listed as 15.05%. Besides, at VIPR2 [2], the inhibition at 0.5 µM was -2.4%, the inhibition at 1 µM is 23% and the inhibition at 5 µM amounted to 34.3%. Further, on VIPR2 [3], the inhibition at 0.5 µM stood at 6.4%, the inhibition at 1 µM was -0.3% and the inhibition at 5 µM was -4.2%.
For `O=C(O)c1ccc(S(=O)(=O)NC[C@@H](O)C[C@@H](Cc2ccccc2)C(=O)N[C@H]2c3ccccc3C[C@H]2O)cc1` [Compound X094], on VIPR2 [1], the “% Activity” value is on record as 13.1%. For the same compound, at VIPR2 [2], the inhibition at 0.5 µM was found to be 7.4%, the inhibition at 1 µM was 6.4% and the inhibition at 5 µM was found to be 26%. Also, on VIPR2 [3], the inhibition at 0.5 µM amounted to 6.4%, the inhibition at 1 µM was -1.8% and the inhibition at 5 µM was determined as 0.2%.
For the compound `CNC(=O)c1ccc(S(=O)(=O)NC[C@@H](O)C[C@@H](Cc2ccccc2)C(=O)N[C@H]2c3ccccc3C[C@H]2O)cc1` [Compound X095], the “% Activity” value at VIPR2 [1] came out at 34.25%. Further, on VIPR2 [2], the inhibition at 0.5 µM came to 13.8%, the inhibition at 1 µM was determined as 22.1% and the inhibition at 5 µM worked out at 69.5%. Besides, on VIPR2 [3], the inhibition at 0.5 µM stood at 6.3%, the inhibition at 1 µM was -1.6% and the inhibition at 5 µM is -1%.
With `CCN(CC)C(=O)c1ccc(S(=O)(=O)NC[C@@H](O)C[C@@H](Cc2ccccc2)C(=O)N[C@H]2c3ccccc3C[C@H]2O)cc1` [Compound X096], the “% Activity” value at VIPR2 [1] stood at 15.3%. Moreover, on VIPR2 [2], the inhibition at 0.5 µM was 2.5%, the inhibition at 1 µM worked out at 5.9% and the inhibition at 5 µM was determined as 31.8%. Further, on VIPR2 [3], the inhibition at 0.5 µM came to 0.3%, the inhibition at 1 µM turned out to be 3.1% and the inhibition at 5 µM is -1.2%.
With `O=C(NC1CCCC1)c1ccc(S(=O)(=O)NC[C@@H](O)C[C@@H](Cc2ccccc2)C(=O)N[C@H]2c3ccccc3C[C@H]2O)cc1` [Compound X097], at VIPR2 [1], the “% Activity” value was 15.95%. Besides, on VIPR2 [2], the inhibition at 0.5 µM was 15.2%, the inhibition at 1 µM worked out at 19.6% and the inhibition at 5 µM was found to be 31.8%. Further, on VIPR2 [3], the inhibition at 0.5 µM came to 3.9%, the inhibition at 1 µM came out at 0.5% and the inhibition at 5 µM was found to be 0.1%.
For the compound `O=C(NCc1ccccc1)c1ccc(S(=O)(=O)NC[C@@H](O)C[C@@H](Cc2ccccc2)C(=O)N[C@H]2c3ccccc3C[C@H]2O)cc1` [Compound X098], the “% Activity” value at VIPR2 [1] was found to be 41.4%. Besides, at VIPR2 [2], the inhibition at 0.5 µM was 25%, the inhibition at 1 µM came out at 32.3% and the inhibition at 5 µM is 90.6%. Besides, on VIPR2 [3], the inhibition at 0.5 µM is 4.8%, the inhibition at 1 µM is -2% and the inhibition at 5 µM is -7.7%.
